Where “and” joins values, the source holds several entries; their conditions need not be identical. Equal values may be shown once. Entries after “also recorded” stand apart in the source; their conditions may differ. Marks after values point to notes of the source that are not given here.
How the values were obtained:
Type in all cases: biochemical
[1] = biological target: T1, Acetylcholinesterase (AChE, E.C. 3.1.1.7, from electric eel) (Electrophorus electricus, UniProt O42275); assay: Crude screening on AChE inhibition (Ellman method); conditions: 2 μM compounds; means ± SEM of at least three independent experiments; normalized as percentage of control
T1 construct: purchased Sigma Aldrich

[2] = biological target: T2, AChE (Electrophorus electricus); assay: biochemical; conditions: inhibition constant against AChE; substrate ATCI at two concentrations
T2 construct: purchased Sigma Aldrich
Method: (§1) Kinetic characterization was performed using Dixon’s method. […] Assay medium contained DTNB solution 15 mM (40 µL), AChE solution 10 units/mL (50 µL), substrate solutions (10 µL) and various concentrations of tested compounds (20 µL). […] Results were computed and presented on the Lineweaver–Burk plot to determine the Ki value and to distinguish the type of enzyme inhibition.

[3] = tested on: T3, human AChE (Electrophorus electricus); assay: biochemical; conditions: Lineweaver–Burk plots
T3 construct: purchased Sigma Aldrich
Method: as §1

T2 sequence (O42275 24-633): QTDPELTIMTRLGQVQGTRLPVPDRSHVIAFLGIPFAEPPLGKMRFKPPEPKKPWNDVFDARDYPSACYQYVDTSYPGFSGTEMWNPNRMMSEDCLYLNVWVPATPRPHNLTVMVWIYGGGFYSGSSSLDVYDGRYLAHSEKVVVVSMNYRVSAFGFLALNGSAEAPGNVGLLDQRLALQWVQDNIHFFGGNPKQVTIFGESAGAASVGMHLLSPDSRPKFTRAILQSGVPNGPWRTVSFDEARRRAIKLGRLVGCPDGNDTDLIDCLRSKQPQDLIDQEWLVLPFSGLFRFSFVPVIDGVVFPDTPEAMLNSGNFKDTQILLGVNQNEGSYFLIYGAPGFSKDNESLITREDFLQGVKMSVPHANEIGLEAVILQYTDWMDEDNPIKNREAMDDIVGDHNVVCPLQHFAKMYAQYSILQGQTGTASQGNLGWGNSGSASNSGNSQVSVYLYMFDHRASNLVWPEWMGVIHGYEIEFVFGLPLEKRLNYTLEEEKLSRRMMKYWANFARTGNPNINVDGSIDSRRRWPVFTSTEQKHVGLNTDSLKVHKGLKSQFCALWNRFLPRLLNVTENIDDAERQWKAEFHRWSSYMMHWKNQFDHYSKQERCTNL
T3 sequence (O42275 24-633): as above
T1 sequence (O42275 24-633): as above

Compound	Inhibition Ratio (%) [1]	Ki [2]	type of enzyme inhibition [3]
COc1cc2cc(C(=O)NCCCCCCCNc3c4c(nc5ccccc35)C3(C)CCC4C3(C)C)c(=O)oc2cc1OC (centres unmarked) [Compound 9g, 6,7-dimethoxy-2-oxo-N-(7-((4,11,11-trimethyl-1,2,3,4-tetrahydro-1,4-methanoacridin-9-yl)amino)heptyl)-2H-chromene-3-carboxamide]	35.49 ± 3.86 ^k %	–	–
COc1ccc2oc(=O)c(C(=O)NCCCCCCNc3c4c(nc5ccccc35)C3(C)CCC4C3(C)C)cc2c1 (centres unmarked) [Compound 8e, 6-methoxy-2-oxo-N-(6-((4,11,11-trimethyl-1,2,3,4-tetrahydro-1,4-methanoacridin-9-yl)amino)hexyl)-2H-chromene-3-carboxamide]	87.48% and 87.48 ± 0.27 ^b %	50.8 nM	mixed-type inhibition; also recorded: mixed-type inhibitor
7-bromo-2-oxo-N-(6-((4,11,11-trimethyl-1,2,3,4-tetrahydro-1,4-methanoacridin-9-yl)amino)hexyl)-2H-chromene-3-carboxamide [Compound 8c]	57.58 ± 3.30 ^fg %	–	–
CC12CCC(c3c1nc1ccccc1c3NCCCCCNC(=O)c1cc3cc(OC(F)(F)F)ccc3oc1=O)C2(C)C (centres unmarked) [Compound 7d, 2-oxo-6-(trifluoromethoxy)-N-(5-((4,11,11-trimethyl-1,2,3,4-tetrahydro-1,4-methanoacridin-9-yl)amino)pentyl)-2H-chromene-3-carboxamide]	47.51 ± 2.65 ^hi %	–	–
Cc1ccc2oc(=O)c(C(=O)NCCCCCCCNc3c4c(nc5ccccc35)C3(C)CCC4C3(C)C)cc2c1 (centres unmarked) [Compound 9b, 6-methyl-2-oxo-N-(7-((4,11,11-trimethyl-1,2,3,4-tetrahydro-1,4-methanoacridin-9-yl)amino)heptyl)-2H-chromene-3-carboxamide]	61.56 ± 4.65 ^ef %	–	–
CC12CCC(c3c1nc1ccccc1c3NCCCCCCCNC(=O)c1cc3ccccc3oc1=O)C2(C)C (centres unmarked) [Compound 9a, 2-oxo-N-(7-((4,11,11-trimethyl-1,2,3,4-tetrahydro-1,4-methanoacridin-9-yl)amino)heptyl)-2H-chromene-3-carboxamide]	40.65 ± 4.28 ^j %	–	–
2-oxo-7-(trifluoromethoxy)-N-(6-((4,11,11-trimethyl-1,2,3,4-tetrahydro-1,4-methanoacridin-9-yl)amino)hexyl)-2H-chromene-3-carboxamide [Compound 8d]	62.92 ± 3.32 ^e %	–	–
CC12CCC(c3c1nc1ccccc1c3NCCCCCNC(=O)c1cc3ccccc3oc1=O)C2(C)C (centres unmarked) [Compound 7a, 2-oxo-N-(5-((4,11,11-trimethyl-1,2,3,4-tetrahydro-1,4-methanoacridin-9-yl)amino)pentyl)-2H-chromene-3-carboxamide]	71.11 ± 0.94 ^d %	–	–
CC12CCC(c3c1nc1ccccc1c3NCCCCCCNC(=O)c1cc3ccccc3oc1=O)C2(C)C (centres unmarked) [Compound 8a, 2-oxo-N-(6-((4,11,11-trimethyl-1,2,3,4-tetrahydro-1,4-methanoacridin-9-yl)amino)hexyl)-2H-chromene-3-carboxamide]	66.57 ± 1.09 ^de %	–	–
CC12CCC(c3c1nc1ccccc1c3NCCCCCCCNC(=O)c1cc3cc(Br)ccc3oc1=O)C2(C)C (centres unmarked) [Compound 9c, 6-bromo-2-oxo-N-(7-((4,11,11-trimethyl-1,2,3,4-tetrahydro-1,4-methanoacridin-9-yl)amino)heptyl)-2H-chromene-3-carboxamide]	44.05 ± 2.74 ^ij %	–	–
COc1ccc2oc(=O)c(C(=O)NCCCCCNc3c4c(nc5ccccc35)C3(C)CCC4C3(C)C)cc2c1 (centres unmarked) [Compound 7e, 6-methoxy-2-oxo-N-(5-((4,11,11-trimethyl-1,2,3,4-tetrahydro-1,4-methanoacridin-9-yl)amino)pentyl)-2H-chromene-3-carboxamide]	86.68 ± 2.18 ^b %	65.1 nM	–
COc1ccc2cc(C(=O)NCCCCCCCNc3c4c(nc5ccccc35)C3(C)CCC4C3(C)C)c(=O)oc2c1 (centres unmarked) [Compound 9f, 7-methoxy-2-oxo-N-(7-((4,11,11-trimethyl-1,2,3,4-tetrahydro-1,4-methanoacridin-9-yl)amino)heptyl)-2H-chromene-3-carboxamide]	56.11 ± 2.60 ^g %	–	–
CC12CCC(c3c1nc1ccccc1c3NCCCCCNC(=O)c1cc3cc(Br)ccc3oc1=O)C2(C)C (centres unmarked) [Compound 7c, 6-bromo-2-oxo-N-(5-((4,11,11-trimethyl-1,2,3,4-tetrahydro-1,4-methanoacridin-9-yl)amino)pentyl)-2H-chromene-3-carboxamide]	50.72 ± 2.98 ^h %	–	–
COc1ccc2oc(=O)c(C(=O)NCCCCCCCNc3c4c(nc5ccccc35)C3(C)CCC4C3(C)C)cc2c1 (centres unmarked) [Compound 9e, 6-methoxy-2-oxo-N-(7-((4,11,11-trimethyl-1,2,3,4-tetrahydro-1,4-methanoacridin-9-yl)amino)heptyl)-2H-chromene-3-carboxamide]	62.15 ± 3.14 ^ef %	–	–
COc1ccc2cc(C(=O)NCCCCCCNc3c4c(nc5ccccc35)C3(C)CCC4C3(C)C)c(=O)oc2c1 (centres unmarked) [Compound 8f, 7-methoxy-2-oxo-N-(6-((4,11,11-trimethyl-1,2,3,4-tetrahydro-1,4-methanoacridin-9-yl)amino)hexyl)-2H-chromene-3-carboxamide]	62.44 ± 1.63 ^e %	–	–
COc1cc2cc(C(=O)NCCCCCNc3c4c(nc5ccccc35)C3(C)CCC4C3(C)C)c(=O)oc2cc1OC (centres unmarked) [Compound 7g, 6,7-dimethoxy-2-oxo-N-(5-((4,11,11-trimethyl-1,2,3,4-tetrahydro-1,4-methanoacridin-9-yl)amino)pentyl)-2H-chromene-3-carboxamide]	84.75 ± 1.27 ^bc %	153 nM	–
COc1ccc2cc(C(=O)NCCCCCNc3c4c(nc5ccccc35)C3(C)CCC4C3(C)C)c(=O)oc2c1 (centres unmarked) [Compound 7f, 7-methoxy-2-oxo-N-(5-((4,11,11-trimethyl-1,2,3,4-tetrahydro-1,4-methanoacridin-9-yl)amino)pentyl)-2H-chromene-3-carboxamide]	81.70 ± 4.82 ^c %	118 nM	–
Cc1ccc2oc(=O)c(C(=O)NCCCCCCNc3c4c(nc5ccccc35)C3(C)CCC4C3(C)C)cc2c1 (centres unmarked) [Compound 8b]	86.60% and 86.60 ± 2.13 ^b %	49.2 nM	mixed-type inhibition; also recorded: mixed-type inhibitor
Cc1ccc2oc(=O)c(C(=O)NCCCCCNc3c4c(nc5ccccc35)C3(C)CCC4C3(C)C)cc2c1 (centres unmarked) [Compound 7b, 6-methyl-2-oxo-N-(5-((4,11,11-trimethyl-1,2,3,4-tetrahydro-1,4-methanoacridin-9-yl)amino)pentyl)-2H-chromene-3-carboxamide]	85.71 ± 1.66 ^bc %	190 nM	–
CC12CCC(c3c1nc1ccccc1c3NCCCCCCCNC(=O)c1cc3cc(OC(F)(F)F)ccc3oc1=O)C2(C)C (centres unmarked) [Compound 9d, 2-oxo-6-(trifluoromethoxy)-N-(7-((4,11,11-trimethyl-1,2,3,4-tetrahydro-1,4-methanoacridin-9-yl)amino)heptyl)-2H-chromene-3-carboxamide]	40.35 ± 2.45 ^j %	–	–
COc1cc2cc(C(=O)NCCCCCCNc3c4c(nc5ccccc35)C3(C)CCC4C3(C)C)c(=O)oc2cc1OC (centres unmarked) [Compound 8g, 6,7-dimethoxy-2-oxo-N-(6-((4,11,11-trimethyl-1,2,3,4-tetrahydro-1,4-methanoacridin-9-yl)amino)hexyl)-2H-chromene-3-carboxamide]	62.74 ± 0.27 ^e %	–	–

— PMC9000719, “Design, Synthesis and Bioactivity Evaluation of Coumarin–BMT Hybrids as New Acetylcholinesterase Inhibitors” (Molecules, 2022)
